This note sets out measurements from patent publication EP4667463A1, “DOMIDE MOLECULAR GLUE DERIVATIVE AND USE THEREOF” (CSPC Megalith Biopharmaceutical Co., Ltd., priority 2023, dated 2024).

As usually defined, the CLint scaled is the rate of metabolic loss divided by the concentration. In general, half-life refers to the time needed for the level to fall by half in the phase considered. As a reminder, the DC50 is the concentration at which degradation of the target reaches its halfway point. One may read the IC50 as the concentration that gives 50% inhibition.

Some results are limits rather than exact numbers.

The nature of series [1]: in vitro. The note with it: rat, liver microsomes. (In general: Microsomes from liver hold many membrane-bound enzymes, among them those of drug oxidation.)
Description: (§2) The final concentration of the substrate in the incubation system was 1 µM, and the incubation time was 60 min. Sampling was performed at 0 min, 5 min, 15 min, 30 min, and 60 min. The reaction was stopped with glacial acetonitrile containing an internal standard (testosterone-d3 at a concentration of 10 ng/mL). Verapamil was used as a positive control. […] The natural logarithm of the remaining percentage was subjected to linear fitting with time to determine the elimination rate constant (k).
Series [2] can be described thus: Metabolic stability in liver microsomes. The settings on record: Mouse liver microsomes, after 60 min of incubation.
Description: as §2
A short description of series [3]: in vitro. The settings on record: monkey, liver microsomes.
Description: as §2
Series [4] is described as follows: Metabolic stability in liver microsomes. The settings on record: Rat liver microsomes, after 60 min of incubation.
Description: as §2
For the next series, the target named is T1, GSPT1 protein (Homo sapiens, UniProt P15170+Q96SW2).
T1 construct: An HiBiT protein tag was added to the N-terminus of the endogenous GSPT1 protein of HEK293T cells by CRISPR gene editing technology; endogenous in cells; host or cells: HEK293T (CRISPR knock-in HiBiT-GSPT1 cell strain)
In words: GSPT1 protein degradation, Nano-Glo HiBiT assay in HiBiT-GSPT1 HEK293T cells. The settings on record: 24 h. In kind it is cell-based. As for the experimental part:
This experiment was performed to evaluate the targeting property of the compounds. An HiBiT protein tag was added to the N-terminus of the endogenous GSPT1 protein of HEK293T cells by CRISPR gene editing technology, so as to construct a HiBiT-GSPT1 HEK293T stably transfected cell strain. HiBiT-GSPT1 HEK293T cells were cultured in DMEM containing 10% FBS and 1% PenStrep. When the cell confluency reached 80%-90%, the cells were digested with trypsin, pipetted into single cells, and resuspended in a corresponding culture medium to form a cell suspension. The cells were counted using Cell Countess (NanoEnTek, #Cat. EVE-MC2), and the cell viability was determined by trypan blue exclusion to ensure that the cell viability was above 90%. The cells were plated in a 384-well plate (Corning, #Cat. 3764) at 10,000 cells/40 µL of cell suspension per well, and cultured in an incubator at 37 °C with 5% CO2 overnight. The next day, the test compounds were added to the 384-well plate under conditions of 30 µM highest concentration, 5-fold serial dilution, and 1‰ DMSO. The plate was incubated in the incubator at 37 °C with 5% CO2 for another 24 h. Before measurement, the Nano-Glo HiBiT reagent was equilibrated to room temperature, the LgBiT protein was diluted with the Nano-Glo HiBiT Lytic buffer according to a dilution ratio of 1:100, and the Nano-Glo@HiBiT Lytic substrate was diluted to an appropriate volume according to a ratio of 1:50. After the cell culture plate was equilibrated at room temperature for 10 min, 40 µL of Nano-Glo HiBiT Lytic assay reagent was added to each well. The plate was shaken on a microplate shaker at a rotation speed of 300 rpm for 3 min in the dark. After the reaction was completed, the luminescencevalues were read on BMG PHERASTAR FS (BMG LRBTECH, Cat. No.: PHERAstar FSX), and the DC50 values were calculated using GraphPad Prism 8.0. Table 2. GSPT1 protein degradation
(In general: The HiBiT peptide binds its large partner to form an active luciferase.)

Another series deals with HCT-15. Briefly: Activity in cell strains with high expression of efflux pump proteins, cell viability assay. The note with it: Homo sapiens, HCT-15 cells, 96 h. The class given is cell-based. As for the experimental part: (§1) Three types of cells used for evaluating the activity of the compounds of the present disclosure against a cell strain with high expression of efflux pump proteins were all purchased from Nanjing Cobioer Biosciences Co., Ltd., and all the cells were derived from ATCC (American Type Culture Collection). Various tumor cells were cultured until the cell confluency reached 80%-90%, with cell viability above 90% as determined by trypan blue exclusion. Then, the cells were plated. Specifically, after cell density optimization, 75 µL of each of three cell suspensions of SNU-5, HCT-15, and AsPc-1 cells (3000 cells/well) was inoculated into a BeyoGold™ ultra-low attachment black clear-bottom 96-well plate (Cat. No.: FULA965-24pcs), and the plate was incubated overnight in a cell incubator at 37 °C with carbon dioxide. The next day, after the cells adhered to the wall, 75 µL of the compounds diluted with the corresponding culture media were added. Specifically, the compounds were serially diluted at a 5-fold gradient starting from the highest concentration of 1 µM, with a final DMSO concentration of 1‰, and the test compounds were then added to the cell culture plate. The plate was incubated in an incubator at 37 °C with 5% carbon dioxide for 96 h. Before measurement, the CellTiter-Lumi™ luminescent cell viability assay reagent was equilibrated to room temperature in the dark. Then, 50 µL of the CellTiter-Lumi™ (Cat. No.: C0065XL) cell viability assay reagent was added to each well of the 96-well plate. The plate was shaken in the dark on a shaker at 300 rpm for 10 min to ensure complete cell lysis. After the reaction was completed, the chemiluminescence intensity was measured on a multi-mode microplate reader. The cell viability inhibition rate was determined according to the chemiluminescence intensity. Then, a cell viability curve was generated by Graphpad Prism 8.0, and the IC50 values were calculated. Table 3. Activity of the compounds of the present disclosure in cell strains with high expression of efflux pump proteins (IC50 value)

The test system of a further series is AsPc-1. Described as above. The class given is cell-based. The note with it: Homo sapiens, ASPC1, AsPc-1 cells, 96 h. As for the experimental part: as §1
The test system of the next series is SNU-5. The description is as above. In kind it is cell-based. The settings on record: Homo sapiens, SNU-5 cells, 96 h. As for the experimental part: as §1
Series [5] can be described thus: Metabolic stability in liver microsomes. The settings on record: Monkey liver microsomes, after 60 min of incubation.
Description: as §2
Series [6] is described as follows: in vitro. The note with it: human, liver microsomes.
Description: as §2

T1 sequence (P15170 whole entry): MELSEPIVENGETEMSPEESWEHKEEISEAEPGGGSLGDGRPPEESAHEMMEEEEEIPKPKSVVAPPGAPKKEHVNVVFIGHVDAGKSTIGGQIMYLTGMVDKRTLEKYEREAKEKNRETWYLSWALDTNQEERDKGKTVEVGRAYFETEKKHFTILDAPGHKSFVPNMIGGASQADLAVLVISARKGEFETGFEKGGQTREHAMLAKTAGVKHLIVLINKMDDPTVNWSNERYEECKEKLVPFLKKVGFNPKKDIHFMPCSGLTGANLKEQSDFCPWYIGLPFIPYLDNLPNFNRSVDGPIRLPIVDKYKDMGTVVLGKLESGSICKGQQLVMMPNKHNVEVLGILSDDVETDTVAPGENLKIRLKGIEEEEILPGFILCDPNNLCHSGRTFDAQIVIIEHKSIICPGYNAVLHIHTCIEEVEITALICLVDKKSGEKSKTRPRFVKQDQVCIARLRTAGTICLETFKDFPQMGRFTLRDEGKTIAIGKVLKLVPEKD
T1 sequence (Q96SW2 whole entry): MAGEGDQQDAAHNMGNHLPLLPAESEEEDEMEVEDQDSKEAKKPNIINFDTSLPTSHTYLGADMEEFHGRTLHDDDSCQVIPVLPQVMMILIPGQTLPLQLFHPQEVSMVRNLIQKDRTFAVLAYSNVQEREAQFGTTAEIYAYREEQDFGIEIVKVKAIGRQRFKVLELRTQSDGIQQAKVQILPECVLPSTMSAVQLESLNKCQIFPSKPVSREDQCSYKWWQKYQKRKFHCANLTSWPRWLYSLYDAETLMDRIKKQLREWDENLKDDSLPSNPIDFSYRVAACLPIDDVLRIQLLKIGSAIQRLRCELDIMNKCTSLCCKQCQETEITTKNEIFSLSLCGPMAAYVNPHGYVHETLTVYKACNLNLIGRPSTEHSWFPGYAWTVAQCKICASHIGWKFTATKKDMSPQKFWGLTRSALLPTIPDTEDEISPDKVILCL
T1 sequence (Q16531 whole entry partner): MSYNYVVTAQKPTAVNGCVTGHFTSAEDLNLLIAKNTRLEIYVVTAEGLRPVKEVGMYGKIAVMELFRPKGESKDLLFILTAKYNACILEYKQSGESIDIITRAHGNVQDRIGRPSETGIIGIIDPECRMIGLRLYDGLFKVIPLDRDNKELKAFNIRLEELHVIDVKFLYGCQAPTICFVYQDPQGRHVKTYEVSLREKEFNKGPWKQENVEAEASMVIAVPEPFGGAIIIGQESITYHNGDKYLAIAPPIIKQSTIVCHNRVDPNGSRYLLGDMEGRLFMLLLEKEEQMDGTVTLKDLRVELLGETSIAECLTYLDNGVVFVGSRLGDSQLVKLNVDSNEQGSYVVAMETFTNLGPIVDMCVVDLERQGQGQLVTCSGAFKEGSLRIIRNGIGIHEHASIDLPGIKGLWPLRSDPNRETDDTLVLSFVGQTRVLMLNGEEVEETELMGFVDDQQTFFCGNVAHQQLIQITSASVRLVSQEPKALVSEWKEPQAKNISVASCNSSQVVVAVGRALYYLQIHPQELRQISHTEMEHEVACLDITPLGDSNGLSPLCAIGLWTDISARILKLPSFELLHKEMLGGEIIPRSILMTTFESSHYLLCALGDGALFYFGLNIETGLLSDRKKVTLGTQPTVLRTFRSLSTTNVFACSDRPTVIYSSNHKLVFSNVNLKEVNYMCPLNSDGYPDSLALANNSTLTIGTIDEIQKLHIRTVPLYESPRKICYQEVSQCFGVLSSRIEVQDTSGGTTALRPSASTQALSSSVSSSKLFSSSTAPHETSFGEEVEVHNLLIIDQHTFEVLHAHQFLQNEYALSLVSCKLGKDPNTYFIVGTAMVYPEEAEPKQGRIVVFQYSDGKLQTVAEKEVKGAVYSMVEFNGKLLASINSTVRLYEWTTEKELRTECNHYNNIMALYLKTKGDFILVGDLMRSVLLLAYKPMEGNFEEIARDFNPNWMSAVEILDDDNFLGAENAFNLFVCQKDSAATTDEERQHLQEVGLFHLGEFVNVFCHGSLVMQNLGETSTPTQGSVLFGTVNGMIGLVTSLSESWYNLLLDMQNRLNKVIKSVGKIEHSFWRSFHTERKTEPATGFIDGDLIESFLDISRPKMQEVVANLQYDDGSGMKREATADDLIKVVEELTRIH

As for `O=C1CCC(N2Cc3cc(CNC(=O)Nc4ccc(CCCOC5CCCNC5)c(Cl)c4)ccc3C2=O)C(=O)N1` (stereo not shown) [Compound B19], the CLint scaled at 1 µM in the series “in vitro [1]” amounted to 6.55 mL/min/kg; in the series “in vitro [3]” it was 11.3 mL/min/kg; in “in vitro [6]”, 5.8 mL/min/kg. Moreover, the half-life at 1 µM turned out to be 6.32 h in the series “in vitro [1]”, 3 h in the series “in vitro [3]” and 5 h in “in vitro [6]”. The “Parent drug remaining %” value is given as 92.8% in [2], 88.1% in series [4] and 77.7% in [5]. At GSPT1 protein, the DC50 was found to be 66.2 nM. Moreover, the IC50 with HCT-15 is 200 to 1000 nM; in the series with AsPc-1, 50 to 200 nM; with SNU-5, under 50 nM.
